According to article PMC10107164 (2022):

Experiments:
[1] = test system: HTelo (F21T-K / F21T-Na) (DNA, G4) GGGTTAGGGTTAGGGTTAGGG; assay: FRET melting; conditions: 10 mM LiCac, pH 7.3, 0.2 μM DNA, 2 μM compound (1:10)
[2] = test system: Kit1 (labelled) (DNA, G4) AGGGAGGGCGCTGGGAGGAGGG; assay: FRET melting; conditions: 100 mM KCl; 10 mM LiCac, pH 7.3; 0.2 μM DNA, 2 μM compound (1:10)
[3] = test system: Kit2 (labelled) (DNA, G4) CGGGCGGGCGCGAGGGAGGGG; assay: FRET melting; conditions: 100 mM KCl; 10 mM LiCac, pH 7.3; 0.2 μM DNA, 2 μM compound (1:10)
[4] = test system: Bcl2 (labelled) (DNA, G4) GGGCGCGGGAGGAATTGGGCGGG; assay: FRET melting; conditions: 100 mM KCl; 10 mM LiCac, pH 7.3; 0.2 μM DNA, 2 μM compound (1:10)
[5] = test system: F21T-RNA (RNA, G4) GGGUUAGGGUUAGGGUUAGGG; assay: FRET melting; conditions: 100 mM KCl; 10 mM LiCac, pH 7.3; 0.2 μM DNA, 2 μM compound (1:10)
[6] = test system: TBA (labelled) (DNA, G4) GGTTGGTGTGGTTGG; assay: FRET melting; conditions: 100 mM KCl; 10 mM LiCac, pH 7.3; 0.2 μM DNA, 1 μM compound (1:5)
[7] = test system: 24TTG (labelled) (DNA, G4) TTGGGTTAGGGTTAGGGTTAGGGA; assay: FRET melting; conditions: 100 mM KCl; 10 mM LiCac, pH 7.3; 0.2 μM DNA, 2 μM compound (1:10)
[8] = test system: 26TTA (labelled) (DNA, G4) TTAGGGTTAGGGTTAGGGTTAGGGTT; assay: FRET melting; conditions: 100 mM KCl; 10 mM LiCac, pH 7.3; 0.2 μM DNA, 2 μM compound (1:10)
[9] = test system: ds26 (labelled) (DNA, duplex) CAATCGGATCGAATTCGATCCGATTG; assay: FRET melting; conditions: 100 mM KCl; 10 mM LiCac, pH 7.3; 0.2 μM DNA, 2 μM compound (1:10)
[10] = test system: HTelo (HTelo22) (DNA, G4) AGGGTTAGGGTTAGGGTTAGGG; assay: thiazole orange displacement (FID); conditions: 100 mM KCl; 10 mM LiCaco, pH 7.2; 1 μM DNA, 2 μM thiazole orange displaced
[11] = test system: cMyc (DNA, G4) TGAGGGTGGGTAGGGTGGGTAA; assay: thiazole orange displacement (FID); conditions: 100 mM KCl; 10 mM LiCaco, pH 7.2; 1 μM DNA, 2 μM thiazole orange displaced
[12] = test system: Kit1 (DNA, G4) AGGGAGGGCGCTGGGAGGAGGG; assay: thiazole orange displacement (FID); conditions: 100 mM KCl; 10 mM LiCaco, pH 7.2; 1 μM DNA, 2 μM thiazole orange displaced
[13] = test system: ds26 (DNA, duplex) CAATCGGATCGAATTCGATCCGATTG; assay: thiazole orange displacement (FID); conditions: 100 mM KCl; 10 mM LiCaco, pH 7.2; 1 μM DNA, 3 μM thiazole orange displaced
[14] = test system: HTelo (HTelo22) (DNA, G4) AGGGTTAGGGTTAGGGTTAGGG; assay: fluorimetric titration (ligand emission); conditions: 100 mM KCl; 10 mM Tris, pH 7.4; 1:1 binding model
[15] = test system: cMyc (DNA, G4) TGAGGGTGGGTAGGGTGGGTAA; assay: fluorimetric titration (ligand emission); conditions: 100 mM KCl; 10 mM Tris, pH 7.4; 1:1 binding model
[16] = test system: Kit1 (DNA, G4) AGGGAGGGCGCTGGGAGGAGGG; assay: fluorimetric titration (ligand emission); conditions: 100 mM KCl; 10 mM Tris, pH 7.4; 1:1 binding model
[17] = test system: Bcl2 (DNA, G4) GGGCGCGGGAGGAATTGGGCGGG; assay: fluorimetric titration (ligand emission); conditions: 100 mM KCl; 10 mM Tris, pH 7.4; 1:1 binding model
[18] = test system: ds26 (DNA, duplex) CAATCGGATCGAATTCGATCCGATTG; assay: fluorimetric titration (ligand emission); conditions: 100 mM KCl; 10 mM Tris, pH 7.4; 1:1 binding model

| Compound | ΔTm ([1]; 100 mM KCl) | ΔTm ([1]; 100 mM NaCl) | ΔTm [2] | ΔTm [3] | ΔTm [4] | ΔTm [5] | ΔTm [6] | ΔTm [7] | ΔTm [8] | binding [9] | DC50 [10] | DC50 [11] | DC50 [12] | DC50 [13] | Ka [14] | Ka [15] | Ka [16] | Ka [17] | Ka [18] |
| --- | --- | --- | --- | --- | --- | --- | --- | --- | --- | --- | --- | --- | --- | --- | --- | --- | --- | --- | --- |
| C[N+](C)(C)CCCOc1ccc(N(c2ccc(OCCC[N+](C)(C)C)cc2)c2ccc(-c3ccc4c(c3)C3(c5ccccc5-c5ccccc53)c3cc(-c5ccc(N(c6ccc(OCCC[N+](C)(C)C)cc6)c6ccc(OCCC[N+](C)(C)C)cc6)cc5)ccc3-4)cc2)cc1 | > 35 °C | 24.8 °C | > 35 °C | 27.9 °C | 30.5 °C | > 26.5 °C | 19.4 °C | < 12 °C | < 12 °C | no | > 5 µM | 2.84 µM | 3.00 µM | > 5 µM | > 10^7 M^-1 | 4.5(0.8)x10^5 M^-1 | 4.0(0.4)x10^5 M^-1 | 5.4(0.5)x10^5 M^-1 | 3.5(0.5)x10^5 M^-1 |
| O=S(=O)(O)CCCCOc1ccc(N(c2ccc(OCCCCS(=O)(=O)O)cc2)c2ccc(-c3ccc4c(c3)C3(c5ccccc5-c5ccccc53)c3cc(-c5ccc(N(c6ccc(OCCCCS(=O)(=O)O)cc6)c6ccc(OCCCCS(=O)(=O)O)cc6)cc5)ccc3-4)cc2)cc1 |  |  |  |  |  |  |  |  |  |  | > 5 µM | > 5 µM | > 5 µM | 3.52 µM | 7.2(2)x10^4 M^-1 | 5.6(0.1)x10^4 M^-1 | < 10^3 M^-1 | 5.5(0.3)x10^4 M^-1 | < 10^3 M^-1 |
